Measurements as given in patent publication US20250114345A1, “COMPOUNDS AND COMPOSITIONS AS CBP/P300 DEGRADERS AND USES THEREOF” (Oncopia Therapeutics, Inc. d/b/a/ SK Life Science Labs, priority 2023, published 2025).

Molecular target: T1, p300 (Homo sapiens, UniProt Q09472)
T1 construct: host or cells: A549 P300 HiBit cells
Test: P300 degradation, HiBit technology in A549 P300 HiBit cells (2 h)
Format: cell-based
Conditions: 2 hrs post treatment; for Dmax: A549, A549 P300 HiBit cells; for DC50: A549 P300 HiBit cells
In short: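 A549 cells carrying HiBit-tagged p300 or CBP, seeded overnight at 37 °C/5% CO2, then treated with serial compound dilutions from 10 mM DMSO stocks. Incubation was 2 h for p300 and 24 h for CBP, followed by HiBit lytic detection reagent for 10 min at room temperature. Luminescence read gave degradation potency and Dmax.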

T1 sequence (Q09472 whole entry): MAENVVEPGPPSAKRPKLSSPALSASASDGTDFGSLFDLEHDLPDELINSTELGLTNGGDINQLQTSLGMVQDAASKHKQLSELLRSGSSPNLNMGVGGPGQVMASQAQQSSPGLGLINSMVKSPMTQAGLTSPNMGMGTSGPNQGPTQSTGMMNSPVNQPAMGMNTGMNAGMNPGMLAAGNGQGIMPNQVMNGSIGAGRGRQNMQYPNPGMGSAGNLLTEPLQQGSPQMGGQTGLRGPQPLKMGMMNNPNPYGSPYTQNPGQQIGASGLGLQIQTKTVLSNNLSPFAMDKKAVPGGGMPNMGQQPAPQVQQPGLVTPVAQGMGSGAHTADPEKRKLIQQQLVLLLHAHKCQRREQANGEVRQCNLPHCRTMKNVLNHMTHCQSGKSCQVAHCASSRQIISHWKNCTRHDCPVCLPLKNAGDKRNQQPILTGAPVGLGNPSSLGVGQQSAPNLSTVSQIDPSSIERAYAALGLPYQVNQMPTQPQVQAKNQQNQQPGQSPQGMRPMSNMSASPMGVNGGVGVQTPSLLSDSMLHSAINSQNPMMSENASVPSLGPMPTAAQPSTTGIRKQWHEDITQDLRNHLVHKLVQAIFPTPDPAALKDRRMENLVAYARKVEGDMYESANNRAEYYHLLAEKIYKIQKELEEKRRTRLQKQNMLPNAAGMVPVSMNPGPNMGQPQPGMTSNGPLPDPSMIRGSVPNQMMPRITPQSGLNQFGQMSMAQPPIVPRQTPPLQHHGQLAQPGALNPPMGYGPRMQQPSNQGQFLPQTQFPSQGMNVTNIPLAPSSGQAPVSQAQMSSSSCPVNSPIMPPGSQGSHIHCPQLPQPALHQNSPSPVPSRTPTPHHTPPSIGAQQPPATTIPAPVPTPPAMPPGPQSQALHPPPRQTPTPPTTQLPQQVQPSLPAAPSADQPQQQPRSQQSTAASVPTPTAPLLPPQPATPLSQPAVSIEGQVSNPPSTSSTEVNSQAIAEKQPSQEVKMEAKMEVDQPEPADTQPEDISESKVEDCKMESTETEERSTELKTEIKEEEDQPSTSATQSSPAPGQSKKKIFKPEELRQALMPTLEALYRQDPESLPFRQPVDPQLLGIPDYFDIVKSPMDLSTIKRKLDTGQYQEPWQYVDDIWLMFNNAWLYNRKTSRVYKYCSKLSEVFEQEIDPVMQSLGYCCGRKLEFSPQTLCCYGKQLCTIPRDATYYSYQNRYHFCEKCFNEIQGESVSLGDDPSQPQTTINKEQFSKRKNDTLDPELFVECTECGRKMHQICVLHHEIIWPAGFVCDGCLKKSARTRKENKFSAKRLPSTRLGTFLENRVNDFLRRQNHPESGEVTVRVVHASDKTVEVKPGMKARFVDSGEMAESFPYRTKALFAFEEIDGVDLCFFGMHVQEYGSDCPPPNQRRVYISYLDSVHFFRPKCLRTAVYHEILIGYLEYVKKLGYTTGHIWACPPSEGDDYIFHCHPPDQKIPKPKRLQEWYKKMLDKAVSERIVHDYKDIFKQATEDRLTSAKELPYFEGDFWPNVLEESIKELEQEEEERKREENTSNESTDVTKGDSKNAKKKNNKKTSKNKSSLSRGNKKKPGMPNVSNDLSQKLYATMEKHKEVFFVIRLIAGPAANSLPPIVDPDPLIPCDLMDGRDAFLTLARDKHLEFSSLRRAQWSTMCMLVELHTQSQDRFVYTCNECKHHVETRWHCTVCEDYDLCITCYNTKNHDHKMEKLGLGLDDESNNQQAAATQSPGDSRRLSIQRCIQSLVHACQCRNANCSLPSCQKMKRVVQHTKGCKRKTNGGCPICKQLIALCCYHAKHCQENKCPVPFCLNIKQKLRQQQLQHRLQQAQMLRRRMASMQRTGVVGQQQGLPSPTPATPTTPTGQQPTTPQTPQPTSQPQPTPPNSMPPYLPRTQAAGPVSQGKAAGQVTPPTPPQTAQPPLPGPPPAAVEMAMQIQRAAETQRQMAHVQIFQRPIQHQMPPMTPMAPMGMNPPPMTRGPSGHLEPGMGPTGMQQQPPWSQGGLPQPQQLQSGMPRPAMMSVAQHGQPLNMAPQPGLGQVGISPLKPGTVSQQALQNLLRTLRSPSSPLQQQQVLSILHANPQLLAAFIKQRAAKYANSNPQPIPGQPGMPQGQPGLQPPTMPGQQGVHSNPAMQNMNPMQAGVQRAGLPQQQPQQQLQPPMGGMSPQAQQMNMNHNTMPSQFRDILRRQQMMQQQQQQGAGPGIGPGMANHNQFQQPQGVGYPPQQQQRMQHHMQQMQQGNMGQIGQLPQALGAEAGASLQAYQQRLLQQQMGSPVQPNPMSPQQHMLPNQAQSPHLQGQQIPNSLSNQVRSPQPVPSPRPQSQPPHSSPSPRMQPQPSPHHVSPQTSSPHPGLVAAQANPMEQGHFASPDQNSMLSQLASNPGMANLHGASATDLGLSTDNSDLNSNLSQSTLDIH

Row | Dmax | DC50 | Structure (SMILES)
1 | < 20% | > 1000 nM | Cc1cc(-c2ncc(N(C)c3cc4c(c(N5CCOCC5)n3)n(C)c(=O)n4C)cn2)cnc1C(=O)NCC#Cc1ccc2occ(C3CCC(=O)NC3=O)c2c1 (centres unmarked) [Example A147, 5-(5-((1,3-dimethyl-4-morpholino-2-oxo-2,3-dihydro-1H-imidazo[4,5-c]pyridin-6-yl)(methyl)amino)pyrimidin-2-yl)-N-(3-(3-(2,6-dioxopiperidin-3-yl)benzofuran-5-yl)prop-2-yn-1-yl)-3-methylpicolinamide]
2 | > 80% | 1 to 9.9 nM | COc1cc(-c2cc3cccc(-c4ccc5c(c4)n(C)c(=O)n5C)c3cn2)cnc1C(=O)NCC#Cc1ccc2occ(C3CCC(=O)NC3=O)c2c1 (centres unmarked) [Example A148, 5-(8-(1,3-dimethyl-2-oxo-2,3-dihydro-1H-benzo[d]imidazol-5-yl)isoquinolin-3-yl)-N-(3-(3-(2,6-dioxo-piperidin-3-yl)benzofuran-5-yl)prop-2-yn-1-yl)-3-methoxypicolinamide]
3 | < 20% | > 1000 nM | Cc1cc(-c2ncc(N(C)c3cc(C4CCOCC4)c4c(c3)n(C)c(=O)n4C)s2)cnc1C(=O)NCC#Cc1ccc2occ(C3CCC(=O)NC3=O)c2c1 (centres unmarked) [Example A149, 5-(5-((1,3-dimethyl-2-oxo-7-(tetrahydro-2H-pyran-4-yl)-2,3-dihydro-1H-benzo[d]imidazol-5-yl)(methyl)amino)thiazol-2-yl)-N-(3-(3-(2,6-dioxopiperidin-3-yl)benzofuran-5-yl)prop-2-yn-1-yl)-3-methylpicolinamide]
4 | > 80% | 1 to 9.9 nM | CC(C)c1cc(N2CCCc3cc(-c4ccc(C(=O)NCC#Cc5ccc6occ(C7CCC(=O)NC7=O)c6c5)nc4)c(C(F)F)cc32)cc2c1n(C)c(=O)n2C (centres unmarked) [Example A151, 5-(7-(difluoromethyl)-1-(7-isopropyl-1,3-dimethyl-2-oxo-2,3-dihydro-1H-benzo[d]imidazol-5-yl)-1,2,3,4-tetrahydroquinolin-6-yl)-N-(3-(3-(2,6-dioxopiperidin-3-yl)benzofuran-5-yl)prop-2-yn-1-yl)picolinamide]
5 | 20 to 39% | 10 to 99 nM | Cn1c(=O)n(C)c2c(-n3cccn3)nc(-c3cccc4cc(-c5ccc(C(=O)NCC#Cc6ccc7occ(C8CCC(=O)NC8=O)c7c6)nc5)ncc34)cc21 (centres unmarked) [Example A152, 5-(8-(1,3-dimethyl-2-oxo-4-(1H-pyrazol-1-yl)-2,3-dihydro-1H-imidazo[4,5-c]pyridin-6-yl)iso-quinolin-3-yl)-N-(3-(3-(2,6-dioxopiperidin-3-yl)benzofuran-5-yl)prop-2-yn-1-yl)picolinamide]
6 | > 80% | 1 to 9.9 nM | Cc1cc(-c2ncc(N(C)c3cc(C(C)C)c4c(c3)n(C)c(=O)n4C)cc2F)cnc1C(=O)NCC#Cc1ccc2occ(C3CCC(=O)NC3=O)c2c1 (centres unmarked) [Example A153, N-(3-(3-(2,6-dioxo-piperidin-3-yl)benzofuran-5-yl)prop-2-yn-1-yl)-3-fluoro-5-((7-iso-propyl-1,3-dimethyl-2-oxo-2,3-dihydro-1H-benzo[d]imidazol-5-yl)(methyl)amino)-5′-methyl-[2,3′-bipyridine]-6′-carboxamide]
7 | 60 to 79% | 10 to 99 nM | Cc1cc(-c2ccc(N(C)c3cc(C(C)C)c4c(c3)n(C)c(=O)n4C)cn2)cnc1C(=O)NCC#Cc1cc(NC2CCC(=O)NC2=O)nn1C (centres unmarked) [Example A154, N-(3-(3-((2,6-dioxo-piperidin-3-yl)amino)-1-methyl-1H-pyrazol-5-yl)prop-2-yn-1-yl)-5-((7-isopropyl-1,3-dimethyl-2-oxo-2,3-dihydro-1H-benzo [d]imidazol-5-yl) (methyl)amino)-5′-methyl-[2,3′-bipyridine]-6′-carboxamide]
8 | > 80% | 1 to 9.9 nM | Cc1cc(-c2ncc(N(C)c3cc(C(C)C)c4c(c3)n(C)c(=O)n4C)cn2)cnc1C(=O)NCC#Cc1ccc2occ(C3CCC(=O)NC3=O)c2c1 (centres unmarked) [Example A156, N-(3-(3-(2,6-dioxo-piperidin-3-yl)benzofuran-5-yl)prop-2-yn-1-yl)-5-(5-((7-isopropyl-1,3-dimethyl-2-oxo-2,3-dihydro-1H-benzo [d]imidazol-5-yl)(methyl)amino)pyrimidin-2-yl)-3-methylpicolinamide]
9 | > 80% | 1 to 9.9 nM | Cn1c(=O)n(C)c2ncc(-c3cccc4cc(-c5ccc(C(=O)NCC#Cc6ccc7occ(C8CCC(=O)NC8=O)c7c6)nc5)ncc34)cc21 (centres unmarked) [Example A157, 5-(8-(1,3-dimethyl-2-oxo-2,3-dihydro-1H-imidazo[4,5-b]pyridin-6-yl)isoquinolin-3-yl)-N-(3-(3-(2,6-dioxopiperidin-3-yl)benzofuran-5-yl)prop-2-yn-1-yl)picolinamide]
10 | 40 to 59% | 10 to 99 nM | CC(C)c1cc(-c2cccc3cc(-c4ccc(C(=O)NCC#Cc5ccc6occ(C7CCC(=O)NC7=O)c6n5)nc4)ncc23)cc2c1n(C)c(=O)n2C (centres unmarked) [Example A159, N-(3-(3-(2,6-dioxo-piperidin-3-yl)furo[3,2-b]pyridin-5-yl)prop-2-yn-1-yl)-5-(8-(7-isopropyl-1,3-dimethyl-2-oxo-2,3-dihydro-1H-benzo [d]imidazol-5-yl)isoquinolin-3-yl)picolinamide]
11 | 20 to 39% | 1 to 9.9 nM | COc1cc(-c2cnc(C(=O)NCC#Cc3cc4c(C5CCC(=O)NC5=O)cccc4o3)c(C)c2)ncc1N(C)c1cc(C2CCOCC2)c2c(c1)n(C)c(=O)n2C (centres unmarked) [Example A166, 5-((1,3-dimethyl-2-oxo-7-(tetrahydro-2H-pyran-4-yl)-2,3-dihydro-1H-benzo[d]imidazol-5-yl)(methyl)amino)-N-(3-(4-(2,6-dioxopiperidin-3-yl)benzofuran-2-yl)prop-2-yn-1-yl)-4-methoxy-5′-methyl-[2,3′-bipyridine]-6′-carboxamide]
12 | 60 to 79% | 1 to 9.9 nM | COc1nc(-c2cnc(C(=O)NCC#Cc3cc4c(C5CCC(=O)NC5=O)cccc4o3)c(C)c2)ncc1N(C)c1cc(C2CCOCC2)c2c(c1)n(C)c(=O)n2C (centres unmarked) [Example A167, 5-(5-((1,3-dimethyl-2-oxo-7-(tetrahydro-2H-pyran-4-yl)-2,3-dihydro-1H-benzo[d]imidazol-5-yl)(methyl)amino)-4-methoxypyrimidin-2-yl)-N-(3-(4-(2,6-dioxopiperidin-3-yl)benzofuran-2-yl)prop-2-yn-1-yl)-3-methylpicolinamide]
13 | > 80% | 1 to 9.9 nM | Cc1cc(-c2ncc(N(C)c3cc(C4CCOCC4)c4c(c3)n(C)c(=O)n4C)cn2)cnc1C(=O)NCC#Cc1cc2c(C3CCC(=O)NC3=O)nccc2o1 (centres unmarked) [Example A168, 5-(5-((1,3-dimethyl-2-oxo-7-(tetrahydro-2H-pyran-4-yl)-2,3-dihydro-1H-benzo[d]imidazol-5-yl)(methyl)amino)pyrimidin-2-yl)-N-(3-(4-(2,6-dioxopiperidin-3-yl)furo[3,2-c]pyridin-2-yl)prop-2-yn-1-yl)-3-methylpicolinamide]
14 | > 80% | 10 to 99 nM | Cc1cc(-c2cnc(N(C)c3cc(C4CCOCC4)c4c(c3)n(C)c(=O)n4C)cn2)cnc1C(=O)NCC#Cc1cc2c(C3CCC(=O)NC3=O)nccc2o1 (centres unmarked) [Example A176, 5-(5-((1,3-dimethyl-2-oxo-7-(tetrahydro-2H-pyran-4-yl)-2,3-dihydro-1H-benzo[d]imidazol-5-yl)(methyl)amino)pyrazin-2-yl)-N-(3-(4-(2,6-dioxopiperidin-3-yl)furo[3,2-c]pyridin-2-yl)prop-2-yn-1-yl)-3-methylpicolinamide]
15 | 60 to 79% | 1 to 9.9 nM | Cn1c(=O)n(C)c2cc(-c3cccc4cc(-c5ccc(C(=O)NCC#Cc6cc7c(C8CCC(=O)NC8=O)cccc7o6)nc5)ncc34)ncc21 (centres unmarked) [Example A179, 5-(8-(1,3-dimethyl-2-oxo-2,3-dihydro-1H-imidazo[4,5-c]pyridin-6-yl)isoquinolin-3-yl)-N-(3-(4-(2,6-dioxopiperidin-3-yl)benzofuran-2-yl)prop-2-yn-1-yl)picolinamide]
16 | > 80% | < 1 nM | Cc1cc(-c2cccc3cc(-c4ccc(C(=O)NCC#Cc5cc6c(C7CCC(=O)NC7=O)cccc6o5)nc4)ncc23)cc2c1n(C)c(=O)n2C (centres unmarked) [Example A183, N-(3-(4-(2,6-dioxo-piperidin-3-yl)benzofuran-2-yl)prop-2-yn-1-yl)-5-(8-(1,3,7-trimethyl-2-oxo-2,3-dihydro-1H-benzo[d]imidazol-5-yl)isoquinolin-3-yl)picolinamide]
17 | > 80% | 10 to 99 nM | CC(C)c1cc(-c2cccc3cc(-c4ccc(C(=O)NCC#Cc5ccc6c(c5)N(C5CCC(=O)NC5=O)CC6)nc4)ncc23)cc2c1n(C)c(=O)n2C (centres unmarked) [Example A184, N-(3-(1-(2,6-dioxo-piperidin-3-yl)indolin-6-yl)prop-2-yn-1-yl)-5-(8-(7-isopropyl-1,3-dimethyl-2-oxo-2,3-dihydro-1H-benzo[d]imidazol-5-yl)isoquinolin-3-yl)picolinamide]
18 | < 20% | > 1000 nM | CC(C)c1cc(-c2cccc3cc(-c4ccc(C(=O)NCC#Cc5nc6c(C7CCC(=O)NC7=O)cccc6n5C)nc4)ncc23)cc2c1n(C)c(=O)n2C (centres unmarked) [Example A186, N-(3-(4-(2,6-dioxo-piperidin-3-yl)-1-methyl-1H-benzo[d]imidazol-2-yl)prop-2-yn-1-yl)-5-(8-(7-iso-propyl-1,3-dimethyl-2-oxo-2,3-dihydro-1H-benzo[d]imidazol-5-yl)isoquinolin-3-yl)picolinamide]
19 | > 80% | 1 to 9.9 nM | Cc1nc(-c2ncc(N(C)c3cc(C4CCOCC4)c4c(c3)n(C)c(=O)n4C)cn2)cnc1C(=O)NCC#Cc1cc2c(C3CCC(=O)NC3=O)cccc2o1 (centres unmarked) [Example A187, 5-(5-((1,3-dimethyl-2-oxo-7-(tetrahydro-2H-pyran-4-yl)-2,3-dihydro-1H-benzo[d]imidazol-5-yl)(methyl)amino)pyrimidin-2-yl)-N-(3-(4-(2,6-dioxopiperidin-3-yl)benzofuran-2-yl)prop-2-yn-1-yl)-3-methylpyrazine-2-carboxamide]
